Measured values from patent publication US20240109865A1, “INDAZOLE COMPOUNDS AS KINASE INHIBITORS” (TYRA BIOSCIENCES, INC., priority 2020, published 2024).
Read-outs that look alike come from different tables or passages of the source.

Columns and labels:
Test in all cases: Kinase assay, binding constants (Kd), kinase-tagged T7 phage, qPCR
[1] = target: FGFR1 (Homo sapiens (Human), UniProt P11362)
Outline: (§1)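 Competition binding: T7 phage-tagged kinase + biotin-ligand beads + compound (11 pts, 3-fold, 0.9% DMSO). Elution 30 min RT with free ligand; qPCR quantitation. Kd via Hill fit, slope −1.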

[2] = target: FGFR2 (Homo sapiens (Human), UniProt P21802)
Outline: as §1

[3] = target: FGFR3 (Homo sapiens (Human), UniProt P22607)
Outline: as §1

[4] = target: FGFR3 (V555M) (Homo sapiens (Human), UniProt P22607, V555M); details: V555M mutant
Outline: as §1

[5] = target: FGFR4 (Homo sapiens (Human), UniProt P22455)
Outline: as §1

Chain of FGFR1 (P11362 22-822): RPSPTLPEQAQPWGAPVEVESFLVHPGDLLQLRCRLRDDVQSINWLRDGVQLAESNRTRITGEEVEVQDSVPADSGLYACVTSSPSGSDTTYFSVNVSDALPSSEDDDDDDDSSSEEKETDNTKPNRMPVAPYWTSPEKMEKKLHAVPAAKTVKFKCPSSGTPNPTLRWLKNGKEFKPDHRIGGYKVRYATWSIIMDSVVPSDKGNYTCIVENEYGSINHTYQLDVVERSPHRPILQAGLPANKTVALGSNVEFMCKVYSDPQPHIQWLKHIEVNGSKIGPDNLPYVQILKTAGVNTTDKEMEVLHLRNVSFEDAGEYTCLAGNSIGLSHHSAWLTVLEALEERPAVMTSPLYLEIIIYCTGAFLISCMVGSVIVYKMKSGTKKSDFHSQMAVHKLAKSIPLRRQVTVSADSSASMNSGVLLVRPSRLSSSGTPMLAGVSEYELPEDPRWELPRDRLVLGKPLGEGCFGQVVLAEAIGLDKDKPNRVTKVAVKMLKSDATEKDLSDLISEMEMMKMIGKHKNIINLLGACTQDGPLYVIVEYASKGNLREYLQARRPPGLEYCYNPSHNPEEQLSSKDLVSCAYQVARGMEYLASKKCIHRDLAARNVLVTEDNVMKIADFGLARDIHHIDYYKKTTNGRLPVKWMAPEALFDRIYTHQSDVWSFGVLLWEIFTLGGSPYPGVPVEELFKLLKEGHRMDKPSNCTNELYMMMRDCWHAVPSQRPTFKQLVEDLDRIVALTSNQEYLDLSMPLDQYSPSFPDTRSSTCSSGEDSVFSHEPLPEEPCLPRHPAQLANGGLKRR
Chain of FGFR3 (V555M) (P22607 23-806 V555M): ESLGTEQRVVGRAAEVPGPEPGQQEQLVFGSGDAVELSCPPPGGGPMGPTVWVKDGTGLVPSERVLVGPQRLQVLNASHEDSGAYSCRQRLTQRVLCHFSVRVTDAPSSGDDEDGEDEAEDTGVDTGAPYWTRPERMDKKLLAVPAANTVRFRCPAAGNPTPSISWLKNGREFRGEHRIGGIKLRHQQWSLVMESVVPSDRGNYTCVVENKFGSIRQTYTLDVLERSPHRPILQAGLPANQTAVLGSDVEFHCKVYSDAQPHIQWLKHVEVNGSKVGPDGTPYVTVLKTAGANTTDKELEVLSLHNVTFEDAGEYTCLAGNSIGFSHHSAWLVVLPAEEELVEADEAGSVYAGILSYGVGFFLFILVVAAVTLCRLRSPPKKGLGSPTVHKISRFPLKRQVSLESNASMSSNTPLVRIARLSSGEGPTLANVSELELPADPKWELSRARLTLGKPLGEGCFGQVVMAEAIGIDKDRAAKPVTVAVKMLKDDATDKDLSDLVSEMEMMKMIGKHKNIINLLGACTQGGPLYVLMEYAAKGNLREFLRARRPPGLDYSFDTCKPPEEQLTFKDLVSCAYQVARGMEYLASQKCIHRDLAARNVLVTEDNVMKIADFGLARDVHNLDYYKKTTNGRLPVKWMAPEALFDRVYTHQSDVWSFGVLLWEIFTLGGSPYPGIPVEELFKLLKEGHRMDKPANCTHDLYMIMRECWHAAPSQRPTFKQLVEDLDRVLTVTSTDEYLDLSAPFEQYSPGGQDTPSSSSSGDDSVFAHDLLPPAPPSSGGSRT
Chain of FGFR2 (P21802 22-821): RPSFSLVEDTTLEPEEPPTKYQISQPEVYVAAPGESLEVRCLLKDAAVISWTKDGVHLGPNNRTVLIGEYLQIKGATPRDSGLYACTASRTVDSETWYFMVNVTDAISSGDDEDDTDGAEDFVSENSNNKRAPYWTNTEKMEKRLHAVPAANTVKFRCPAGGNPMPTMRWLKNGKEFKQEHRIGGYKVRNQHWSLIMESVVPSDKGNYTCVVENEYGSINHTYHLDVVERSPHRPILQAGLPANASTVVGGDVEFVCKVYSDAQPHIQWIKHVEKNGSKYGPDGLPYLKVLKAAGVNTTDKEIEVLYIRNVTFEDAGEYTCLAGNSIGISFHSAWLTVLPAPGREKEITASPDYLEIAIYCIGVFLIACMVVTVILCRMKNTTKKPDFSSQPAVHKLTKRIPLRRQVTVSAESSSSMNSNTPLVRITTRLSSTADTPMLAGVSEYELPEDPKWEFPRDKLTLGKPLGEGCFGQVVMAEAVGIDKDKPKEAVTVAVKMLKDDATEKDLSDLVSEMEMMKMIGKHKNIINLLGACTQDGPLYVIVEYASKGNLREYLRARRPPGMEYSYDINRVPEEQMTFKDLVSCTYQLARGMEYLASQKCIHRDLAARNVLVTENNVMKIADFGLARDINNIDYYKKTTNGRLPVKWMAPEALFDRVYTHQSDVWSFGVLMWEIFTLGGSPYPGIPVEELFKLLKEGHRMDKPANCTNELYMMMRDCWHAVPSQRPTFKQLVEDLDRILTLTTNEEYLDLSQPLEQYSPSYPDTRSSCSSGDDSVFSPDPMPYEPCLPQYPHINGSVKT
Chain of FGFR4 (P22455 22-802): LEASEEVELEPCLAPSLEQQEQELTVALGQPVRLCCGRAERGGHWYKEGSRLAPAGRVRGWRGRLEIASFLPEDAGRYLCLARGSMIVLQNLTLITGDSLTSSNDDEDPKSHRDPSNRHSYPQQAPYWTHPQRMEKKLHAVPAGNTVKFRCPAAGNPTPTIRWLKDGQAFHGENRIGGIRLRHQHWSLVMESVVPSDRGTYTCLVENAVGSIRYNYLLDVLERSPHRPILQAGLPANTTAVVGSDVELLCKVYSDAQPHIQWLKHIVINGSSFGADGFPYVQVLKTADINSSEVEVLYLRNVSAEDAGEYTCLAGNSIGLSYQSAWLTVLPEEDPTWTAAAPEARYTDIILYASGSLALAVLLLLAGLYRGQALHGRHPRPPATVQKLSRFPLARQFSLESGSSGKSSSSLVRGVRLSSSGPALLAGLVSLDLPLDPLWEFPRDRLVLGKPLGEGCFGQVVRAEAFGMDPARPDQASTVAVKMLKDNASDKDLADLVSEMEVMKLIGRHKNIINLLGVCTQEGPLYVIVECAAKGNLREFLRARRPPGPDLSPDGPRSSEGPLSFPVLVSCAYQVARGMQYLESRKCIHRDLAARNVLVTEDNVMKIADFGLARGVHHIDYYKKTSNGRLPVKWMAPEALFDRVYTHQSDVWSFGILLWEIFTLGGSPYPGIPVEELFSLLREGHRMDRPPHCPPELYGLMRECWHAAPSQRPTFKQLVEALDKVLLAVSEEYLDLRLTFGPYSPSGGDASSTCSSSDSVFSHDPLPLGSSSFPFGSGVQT
Chain of FGFR3 (P22607 23-806): as the sequence (P22607 23-806 V555M) above, with M533V counted along it

Kd [1] | Kd [2] | Kd [3] | Kd [4] | Kd [5] | Kd ([3]; given as a number) | Compound
100 to 300 nM | 100 to 300 nM | 20 to 100 nM | 1 to 20 nM | 1 to 20 nM | – | C[C@@H](Oc1ccc2[nH]nc(-c3cnc(N4CC5(CN(CC(F)F)C5)C4)c(C#N)c3)c2c1)c1c(Cl)cncc1Cl [Example 330, (R)-5-(5-(1-(3,5-dichloropyridin-4-yl)ethoxy)-1H-indazol-3-yl)-2-(6-(2,2-difluoroethyl)-2,6-diazaspiro[3.3]heptan-2-yl)nicotinonitrile]
100 to 300 nM | 100 to 300 nM | 1 to 20 nM | 1 to 20 nM | 1 to 20 nM | – | C[C@@H](Oc1ccc2[nH]nc(-c3cnc(N4CC5C(O)C5C4)c(C#N)c3)c2c1)c1c(Cl)cncc1Cl (stereo partly drawn) [Example 331, 5-(5-((R)-1-(3,5-dichloropyridin-4-yl)ethoxy)-1H-indazol-3-yl)-2-(6-hydroxy-3-azabicyclo[3.1.0]hexan-3-yl)nicotinonitrile]
20 to 100 nM | 20 to 100 nM | 1 to 20 nM | 1 to 20 nM | 1 to 20 nM | – | C[C@@H](Oc1ccc2[nH]nc(-c3cnc(N4CCC[C@@H]4CO)c(C#N)c3)c2c1)c1c(Cl)cncc1Cl [Example 332, 5-(5-((R)-1-(3,5-dichloropyridin-4-yl)ethoxy)-1H-indazol-3-yl)-2-((R)-2-(hydroxymethyl)pyrrolidin-1-yl)nicotinonitrile]
100 to 300 nM | 100 to 300 nM | 20 to 100 nM | 1 to 20 nM | 1 to 20 nM | – | COc1cc2[nH]nc(-c3cnc(N4CCCC4)c(C#N)c3)c2cc1O[C@H](C)c1c(Cl)cncc1Cl [Example 333, 5-[5-[(1R)-1-(3,5-dichloro-4-pyridyl)ethoxy]-6-methoxy-1H-indazol-3-yl]-2-pyrrolidin-1-yl-pyridine-3-carbonitrile]
20 to 100 nM | 20 to 100 nM | 1 to 20 nM | 1 to 20 nM | 1 to 20 nM | – | C[C@@H](Oc1ccc2[nH]nc(-c3cnc(N4CCC[C@H]4CO)c(C#N)c3)c2c1)c1c(Cl)cncc1Cl [Example 334, 5-(5-((R)-1-(3,5-dichloropyridin-4-yl)ethoxy)-1H-indazol-3-yl)-2-((S)-2-(hydroxymethyl)pyrrolidin-1-yl)nicotinonitrile]
1 to 20 nM | 20 to 100 nM | 1 to 20 nM | 1 to 20 nM | 1 to 20 nM | – | Cc1cnnc(C)c1[C@@H](C)Oc1ccc2[nH]nc(-c3cnc(N4CCC[C@@H]4CO)c(C#N)c3)c2c1 [Example 335, 5-(5-((R)-1-(3,5-dimethylpyridazin-4-yl)ethoxy)-1H-indazol-3-yl)-2-((R)-2-(hydroxymethyl)pyrrolidin-1-yl)nicotinonitrile]
20 to 100 nM | 20 to 100 nM | 20 to 100 nM | 1 to 20 nM | 1 to 20 nM | – | Cc1cnnc(C)c1[C@@H](C)Oc1ccc2[nH]nc(-c3cnc(N4CCC[C@H]4CO)c(C#N)c3)c2c1 [Example 336, 5-(5-((R)-1-(3,5-dimethylpyridazin-4-yl)ethoxy)-1H-indazol-3-yl)-2-((S)-2-(hydroxymethyl)pyrrolidin-1-yl)nicotinonitrile]
20 to 100 nM | 100 to 300 nM | 20 to 100 nM | 1 to 20 nM | 1 to 20 nM | – | C[C@@H](Oc1ccc2[nH]nc(-c3cnc(N4CC5(C4)CN(S(C)(=O)=O)C5)c(C#N)c3)c2c1)c1c(Cl)cncc1Cl [Example 337, (R)-5-(5-(1-(3,5-dichloropyridin-4-yl)ethoxy)-1H-indazol-3-yl)-2-(6-(methylsulfonyl)-2,6-diazaspiro[3.3]heptan-2-yl)nicotinonitrile]
100 to 300 nM | > 300 nM | 20 to 100 nM | 1 to 20 nM | 1 to 20 nM | – | C[C@@H](Oc1ccc2[nH]nc(-c3cnc(N4CC5(CCCN(S(C)(=O)=O)C5)C4)c(C#N)c3)c2c1)c1c(Cl)cncc1Cl [Example 338, (R)-5-(5-(1-(3,5-dichloropyridin-4-yl)ethoxy)-1H-indazol-3-yl)-2-(6-(methylsulfonyl)-2,6-diazaspiro[3.5]nonan-2-yl)nicotinonitrile]
1 to 20 nM | 1 to 20 nM | 1 to 20 nM | 1 to 20 nM | 1 to 20 nM | – | COc1cc2[nH]nc(-c3cnc(N4CC5(CCS(=O)(=O)C5)C4)c(C#N)c3)c2cc1O[C@H](C)c1c(Cl)cncc1Cl [Example 339, (R)-5-(5-(1-(3,5-dichloropyridin-4-yl)ethoxy)-6-methoxy-1H-indazol-3-yl)-2-(6,6-dioxido-6-thia-2-azaspiro[3.4]octan-2-yl)nicotinonitrile]
100 to 300 nM | 100 to 300 nM | 1 to 20 nM | 100 to 300 nM | 1 to 20 nM | – | C[C@@H](Oc1ccc2[nH]nc(-c3cnc(N4CC5(CCCS(=O)(=O)C5)C4)c(C#N)c3)c2c1)c1c(Cl)cncc1Cl [Example 340, (R)-5-(5-(1-(3,5-dichloropyridin-4-yl)ethoxy)-1H-indazol-3-yl)-2-(6,6-dioxido-6-thia-2-azaspiro[3.5]nonan-2-yl)nicotinonitrile]
20 to 100 nM | 20 to 100 nM | 1 to 20 nM | 1 to 20 nM | 1 to 20 nM | – | COc1cc2[nH]nc(-c3cnc(N4CC5(C4)CN(S(C)(=O)=O)C5)c(C#N)c3)c2cc1O[C@H](C)c1c(Cl)cnc(C)c1Cl [Example 341, 5-[5-[(1R)-1-(3,5-dichloro-2-methyl-4-pyridyl)ethoxy]-6-methoxy-1H-indazol-3-yl]-2-(2-methylsulfonyl-2,6-diazaspiro[3.3]heptan-6-yl)pyridine-3-carbonitrile]
20 to 100 nM | 1 to 20 nM | 1 to 20 nM | 1 to 20 nM | 1 to 20 nM | – | COc1cc2[nH]nc(-c3cnc(N4CC5(C4)CN(S(C)(=O)=O)C5)c(C#N)c3)c2cc1O[C@H](C)c1c(Cl)cncc1Cl [Example 342, 5-[5-[(1R)-1-(3,5-dichloro-4-pyridyl)ethoxy]-6-methoxy-1H-indazol-3-yl]-2-(2-methylsulfonyl-2,6-diazaspiro[3.3]heptan-6-yl)pyridine-3-carbonitrile]
20 to 100 nM | 20 to 100 nM | 1 to 20 nM | 1 to 20 nM | 1 to 20 nM | – | C[C@@H](Oc1ccc2[nH]nc(-c3cnc(N4CC5(CCS(=O)(=O)C5)C4)c(C#N)c3)c2c1)c1c(Cl)cncc1Cl [Example 343, (R)-5-(5-(1-(3,5-dichloropyridin-4-yl)ethoxy)-1H-indazol-3-yl)-2-(6,6-dioxido-6-thia-2-azaspiro[3.4]octan-2-yl)nicotinonitrile]
> 300 nM | > 300 nM | 100 to 300 nM | 20 to 100 nM | 1 to 20 nM | – | COc1cc(-c2n[nH]c3ccc(O[C@H](C)c4c(Cl)cncc4Cl)cc23)cnc1N1CC2(C1)CN(S(C)(=O)=O)C2 [Example 344, (R)-5-(1-(3,5-dichloropyridin-4-yl)ethoxy)-3-(5-methoxy-6-(6-(methylsulfonyl)-2,6-diazaspiro[3.3]heptan-2-yl)pyridin-3-yl)-1H-indazole]
> 300 nM | > 300 nM | 20 to 100 nM | 20 to 100 nM | 1 to 20 nM | – | C[C@@H](Oc1ccc2[nH]nc(-c3cnc(N4CC(C(F)F)C4)c(C#N)c3)c2c1)c1c(Cl)cncc1Cl [Example 345, (R)-5-(5-(1-(3,5-dichloropyridin-4-yl)ethoxy)-1H-indazol-3-yl)-2-(3-(difluoromethyl)azetidin-1-yl)nicotinonitrile]
1 to 20 nM | 1 to 20 nM | 1 to 20 nM | 1 to 20 nM | 1 to 20 nM | – | COc1cc2[nH]nc(-c3cnc(N4CC5(CCCS(=O)(=O)C5)C4)c(C#N)c3)c2cc1O[C@H](C)c1c(Cl)cncc1Cl [Example 346, (R)-5-(5-(1-(3,5-dichloropyridin-4-yl)ethoxy)-6-methoxy-1H-indazol-3-yl)-2-(6,6-dioxido-6-thia-2-azaspiro[3.5]nonan-2-yl)nicotinonitrile]
> 300 nM | > 300 nM | 20 to 100 nM | 20 to 100 nM | 1 to 20 nM | – | C[C@@H](Oc1ccc2[nH]nc(-c3cnc(N4CC(C(F)(F)F)C4)c(C#N)c3)c2c1)c1c(Cl)cncc1Cl [Example 347, (R)-5-(5-(1-(3,5-dichloropyridin-4-yl)ethoxy)-1H-indazol-3-yl)-2-(3-(trifluoromethyl)azetidin-1-yl)nicotinonitrile]
20 to 100 nM | > 300 nM | 1 to 20 nM | 1 to 20 nM | 1 to 20 nM | – | C[C@@H](Oc1ccc2[nH]nc(-c3cnc(N4CC(C#N)C4)c(C#N)c3)c2c1)c1c(Cl)cncc1Cl [Example 348, (R)-2-(3-cyanoazetidin-1-yl)-5-(5-(1-(3,5-dichloropyridin-4-yl)ethoxy)-1H-indazol-3-yl)nicotinonitrile]
100 to 300 nM | 100 to 300 nM | 20 to 100 nM | 1 to 20 nM | 1 to 20 nM | – | Cc1ncc(Cl)c([C@@H](C)Oc2ccc3[nH]nc(-c4cnc(N5CC6(CCCS(=O)(=O)C6)C5)c(C#N)c4)c3c2)c1Cl [Example 349, 5-[5-[(1R)-1-(3,5-dichloro-2-methyl-4-pyridyl)ethoxy]-1H-indazol-3-yl]-2-(6,6-dioxo-6λ^6-thia-2-azaspiro[3.5]nonan-2-yl)pyridine-3-carbonitrile]
> 300 nM | 100 to 300 nM | – | 20 to 100 nM | 1 to 20 nM | 90 nM | Cc1ncc(Cl)c([C@@H](C)Oc2ccc3[nH]nc(-c4cnc(N5CC6(CCCN(S(C)(=O)=O)C6)C5)c(C#N)c4)c3c2)c1Cl [Example 350, 5-[5-[(1R)-1-(3,5-dichloro-2-methyl-4-pyridyl)ethoxy]-1H-indazol-3-yl]-2-(8-methylsulfonyl-2,8-diazaspiro[3.5]nonan-2-yl)pyridine-3-carbonitrile]
